Measured values taken from US8901317B2, “Tryptamine derivatives, their preparation and their use in gastropathy” (Council of Scientific & Industrial Research, priority 2010, dated 2014).

Columns and labels:
[1] = tested on: gastric mucosal primary cultured cells; experiment: Mitochondrial dehydrogenase activity (MTT reduction assay); format: cell-based, rat
Procedure: Mitochondrial metabolic function was studied by observing the ability of mitochondrial dehydrogenases to reduce MTT ([3-(4,5-dimethylthiazol-2-yl)-2,5-diphenyl tetrazolium bromide]) into formazan dye (Pal, C; et al. Free Radic Biol Med, 49(2), 258-267; 2010). Equal number of gastric mucosal primary cultured cells were taken (10^6) in each well of a 12 well plate and were divided into three groups control, indomethacin treated (5 mM) and SEGA (50 μM) plus indomethacin (5 mM)-treated. After incubating for 16 hrs, cells were dissociated and centrifuged at 500×g for 5 min and the supernatant was then discarded. Cell pellet was reconstituted in fresh cell culture media. Equal number of cells (10^5 cells) in a final volume of 100 μl cell culture media from each group was then taken in 96 well plates in triplicates. MTT (0.1% final concentration) solution was added to each well of both control and experimental groups, mixed well and incubated for 3 hrs at 37° C. in a CO2 incubator. After the incubation, the culture medium was aspirated carefully and the insoluble formazan crystals at the bottom of the well were solubilized with 100 μl of MTT solubilization solution containing 10% Triton X-100 plus 0.1 N HCl in anhydrous isopropanol. The MTT reduction (absorbance of formazan dye) was measured at 570 nm.

[2] = tested on: caspase-3; experiment: Caspase-3 activity in gastric mucosal tissue; format: in vivo, rats; conditions: in dose dependent manner; gastric mucosa
Procedure: From cytosolic fraction of gastric mucosal tissues, caspase-9 and caspse-3 activities were measured using commercially available kit (Biovision, Mountain View, Calif., USA and Sigma respectively). In brief, the gastric mucosa was homogenized in caspase lysis buffer (provided with the respective kit). The homogenate was centrifuged at 16,000×g for 15 min. The supernatant was collected and mixed with 50 μl of 2× reaction buffer (provided with the respective kit). This was followed by addition of the substrates: […] (200 μM final concentration) for caspase-3 and LEHD-pNA (200 μM final concentration) for caspase-9. The mixture was incubated at 37° C. for 1 hr and absorbance was taken at 405 nm (Maity, P.; et al. J. Biol. Chem. 284:3058-3068; 2009, Maity, P.; et al. J. Biol. Chem. 283:14391-14401; 2008, Maity, P.; et al. J. Pineal Res. 46:314-323; 2009).

[3] = tested on: NSAIDs-induced mitochondrial oxidative stress; experiment: Mitochondrial oxidative stress in gastric mucosa (protein carbonyl, lipid peroxidation, total thiol); format: in vivo, rats; conditions: NSAIDs (indomethcin, diclofenac)-induced; pretreatment
Procedure: Commercially available kit (Biochain) was used for the isolation of mitochondria from gastric mucosal cells. In brief, scrapped gastric mucosa was finely minced on ice in a petridish containing mitochondria extraction buffer. Ultra-Turrax T-25 homogenizer was used to homogenize the cells. To remove nuclei and unbroken cells the homogenate was first centrifuged at 800×g for 10 min and then finally subjected to 12000×g for 15 min to get the mitochondrial fraction.
Mitochondrial oxidative stress was performed earlier through measurement protein carbonyl formation, lipid peroxidation and measurement of total thiol content (Pal, C; et al. Free Radic Biol Med, 49(2), 258-267; 2010, Maity, P.; et al. J. Biol. Chem. 284:3058-3068; 2009, Maity, P.; et al. J. Biol. Chem. 283:14391-14401; 2008, Maity, P.; et al. J. Pineal Res. 46:314-323; 2009).
Mitochondrial oxidative stress was studied earlier through the measurement of mitochondrial total thiol depletion, lipid peroxidation and protein carbonyl formation. In brief, thiol content was measured by its reaction with 5-5′-dithionitrobenzoic acid (DTNB) to yield the yellow chromophore of TNB (thionitrobenzoic acid), which was measured at 412 nm Mitochondrial lipid peroxidation was assayed by adding 1 ml of the mitochondrial fraction in 0.9% normal saline to 2 ml of TBA-TCA mixture (0.375% w/v and 15% w/v, respectively) in 0.25 N HCl and was mixed and boiled for 15 min which was then cooled and after centrifugation, the absorbance of the supernatant was read at 535 nm. Tetraethoxypropane was used as standard. Protein carbonyl was measured by following the standard colorimetric method that measures the binding of dinitrophenylhydrazine (DNP) to the carbonyl group and was quantified by taking the absorbance at 362 nm.

[4] = tested on: intra mitochondrial superoxide; experiment: Intra mitochondrial superoxide (MitoSOX); format: cell-based, rat; conditions: indomethacin-treated cultured gastric mucosal cells; pretreatment
Procedure: Isolated mucosal cells from both control and indomethacin-treated cultured gastric mucosa were used for detection of intra mitochondrial superoxide using MitoSOX, an superoxide-sensitive fluorescence probe following the protocol as described in the product catalogue (Maity, P.; et al. J. Biol. Chem. 284:3058-3068; 2009). Cells were stained with the respective fluorescent probe in HB SS (pH 7.4) and incubated for 15 min at 37° C. in the dark as described in the manufacture's protocols. After the incubation, cells were washed with HBSS three times and continued for fluorescence microscopy (Leica, DM-2500, Leica Microsystems). Staining of MitoSOX was visualized using Red filter.

Structure (SMILES): O=C(NCCc1c[nH]c2ccc(O)cc12)c1cc(O)c(O)c(O)c1 [Compound 3a, 3,4,5-trihydroxy-N-(2-(5-hydroxy-1H-indol-3-yl)ethyl)benzamide]
- toxicity as established by MTT reduction assay [1]: non toxic molecule
- mitochondrial dehydrogenase activity (MTT reduction) ([1]; SEGA 50 μM plus indomethacin 5 mM, 16 hrs): restores all the NSAIDs-induced mitochondrial dysfuctions
- indomethacin-induced activation of caspase-3 [2]: prevents indomethacin-induced activation of caspase-3
- depletion of mitochondrial thiol [3]: protects
- oxidation of mitochondrial protein (protein carbonyl formation) [3]: protects
- peroxidation of mitochondrial lipid [3]: protects
- mitochondrial superoxides (mitoSOX) [4]: restores all the NSAIDs-induced mitochondrial dysfuctions
